In patent publication US20240415851A1, “REMODILINS TO PREVENT OR TREAT CANCER METASTASIS, GLAUCOMA, AND HYPOXIA” (The University of Chicago, priority 2019, published 2024):

Experiments:
[1] = system: human primary Schlemm's canal endothelial cells; test: Contractile force of SC cells (Fourier-Transform Traction Microscopy); format: cell-based; settings: vs DMSO; for elevation of cellular contractile force in TGFβ2 treated SC cells: TGFβ2 2.5 ng/mL 48 hr, dose-dependent; for cellular contractile force of SC cells, remodilin alone: treatment alone, 1 hr, dose dependent
Protocol: (§1) FIGS. 11A-11C Anti-fibrogenic effects of remodilins 50, 73, and 82 in human primary Schlemm's canal endothelial cells.
Remodilins' effect on elevation of SC cell contraction by TGF-β2 treatment was then examined. Cellular contractile force was measured using Fourier-Transform Traction Microscopy. Compared to no treatment, TGF-β2 treatment elevated average cellular contractile force by almost seven-fold. […] Then, the effect of remodilin treatment alone on cellular contractile force in SC cells was investigated. After 1 hr treatment, compared to DMSO, remodilins reduced cellular contractile force in a dose dependent manner (FIG. 11C). […] Taken together, the anti-fibrogenic effects and relaxation effects of remodilins could be beneficial to reduce outflow resistance potentially through promoting pore formation in SC inner wall.

[2] = system: human primary Schlemm's canal endothelial cells; test: Fibronectin expression in TGF-β2 treated SC cells; format: cell-based; settings: TGFβ2 2.5 ng/mL 48 hr; remodilin 3 or 10 μM; vs DMSO
Protocol: as §1
Remodilins' effect on SC cells, another key cell type in conventional outflow pathway, was examined. As described above, TGF-β2 also promotes pro-fibrogenic activation in SC cells and such activation accompanies elevation of cell contraction. Protein expression in TGF-β2 treated SC cells was examined first. SC cells from two different donors were cultured in 6-well plates and serum-deprived for 1 day before drug treatment. Cells were treated with Remodilin [3 or 10 μM] or DMSO together with human recombinant TGF-2 [2.5 ng/ml] for 48 hours.

HIF1α [3] = test: Hypoxia-induced HIF1α accumulation in HEK293 cells; format: cell-based; settings: 6 hrs steady hypoxia (1% oxygen); 3 μM or 10 µM
Description: FIG. 12A-12B Remodilins inhibit accumulation of hypoxia-inducible factor-1 alpha (HIF1α) protein. FIG. 12A Effect of remodilin 83 on TGFβ-induced phosphorylation of AKT and ERK1/2 and TGFβ-induced HIF1α accumulation in human fibroblasts. FIG. 12B Both remodilins 39 and 83 inhibited HIF1α accumulation in HEK293 cells exposed to 6 hrs of hypoxia (1% 02).
The influence of remodilin 83 on HIF-1α accumulation in TGFβ-treated fibroblasts was examined. […] Similarly, both remodilins 39 and 83 inhibited HIF1α accumulation in HEK293 cells exposed to 6 hrs of hypoxia (1% O2; FIG. 12B). […] N—normoxia; H—hypoxia.

[4] = system: MDA-MB-231-derived BM1 cells; test: 10% FBS-directed invasion through Matrigel-coated transwell membrane; format: cell-based, human; settings: dose-dependent; n=3/condition
Description: FIG. 4 Remodilins 39 and 83 inhibited 10% FBS-directed invasion migration of MDA-MB-231-derived BM1 cells through a Matrigel-coated transwell mem-brane, in a dose-dependent fashion. Mean+SEM shown; n=3/condition. **P<0.01; ***P<0.001; ****P<0.0001.
(§2) Remodilins 39 and 83 each slowed the invasion of triple negative MDA-MB-231 human breast cancer cells from spheroids into a surrounding collagen gel (FIG. 3), and also slowed the serum-directed invasion MDA-MB-231-derived BM1 cells through Matrigel-coated transwells (FIG. 4). Remodilins 39 and 83 also slowed the migration of MDA-MB-231 cells in a scratch wound healing assay (FIG. 5).

[5] = In vivo PK and oral bioavailability, single dose; settings: mouse, plasma, wild-type mice, 10 mg/kg single dose
Protocol: (§3) The in vivo bioavailability, plasma half-life, Cmax, and area under the curve (AUC) were determined after administration of single 10 mg/kg doses of remodilins 39 and 83 to mice (Table 1). Selected tissue concentrations of remodilins 39 and 83 after single oral doses of 10 or 50 mg/kg (FIG. 6). The PK properties of these remodilins differ substantially.

[6] = Tissue and plasma concentrations after single oral doses; format: in vivo; settings: mice; single oral doses of 10 or 50 mg/kg (FIG. 6)
Protocol: FIG. 6 Tissue and plasma remodilin concentrations after single oral doses (filled circles 50 mg/kg; open circles-10 mg/kg). […] The greater oral bioavailability, longer half-life, and inter-tissue variation of remodilin 83 concentration are readily evident. Mean+SEM shown; n=3/condition.
as §3
PK was re-evaluated after 14 days of intraperitoneal (IP) or oral BID dosing. […] Plasma levels after single or 15 consecutive once-daily IP 10 mg/kg doses of remodilin 39 were examined (FIG. 8). The plasma concentration of 10 μM remodilin 39 corresponds to 5314 ng/mL.

HIF1α [7] = test: Hypoxia-induced HIF1α accumulation in HEK293T cells (Western blot); format: cell-based; settings: 6 hrs steady hypoxia; 3 or 10 μM
Description: FIG. 14A-14B Remodilins' effects on hypoxia-induced accumulation of HIF1α. […] FIG. 14B HIF1α was absent in cells ex-posed to 6 hrs normoxia (N).
OSA is a chronic, morbid disease affecting about 10% of the adult population, in which frequent episodes of upper airway collapse obstruct inspiratory airflow and cause IH. These episodes of IH disrupt sleep but perhaps more importantly accelerate multiple cardiometabolic abnormalities, including systemic hypertension, cardiovascular disease, stroke, and abnormal glucose metabolism. Therefore, remodilins were examined for their ability on inhibit hypoxia-induced accumulation of HIF1α, a transcription factor that mediates many of the adverse responses to IH.

MDA-MB-231 cells [8] = test: Scratch wound healing migration assay; format: cell-based, human; settings: dose-dependent; 1, 3, 10 uM; n=8 wells/condition
Protocol: Mean+SD shown; n=8 wells/condition. P<0.0001 for 1, 3, & 10 uM remodilin 39 vs DMSO (control) by 2-way ANOVA/Dunnett's.
as §2

[9] = system: human lung-derived fibroblasts; test: TGFβ-induced myofibroblast transformation (ACTA2, FN1 protein expression); format: cell-based; settings: 1 ng/mL TGFβ1; 0, 1, 3, or 10 μM remodilin for 2 d; dose-dependent
Protocol: FIG. 1 Remodilins inhibit myofibroblast transformation (MFT). Serum deprived human lung-derived fibroblasts were treated with 1 ng/mL TGFβ1 (or not, left lane) and 0, 1, 3, or 10 μM remodilin for 2 d. Four remodilins each inhibited smooth muscle α-actin (ACTA2) or fibronectin-1 (FN1) protein expression (markers of MFT).

MDA-MB-231 cells [10] = test: Alamar blue assay (growth inhibition, cytotoxicity); format: cell-based, human; settings: concentrations to at least 10 uM
MDA-MB-231 cells [11] = test: Spheroid invasion into collagen gels; format: cell-based, human; settings: 10 µM remodilin; 48 hrs; collagen 2 mg/mL; DMEM 0.5% FBS; vs 0.1% DMSO
Protocol: FIG. 3 MDA-MB-231 cells were grown into spheroids, then allowed to migrate into collagen gels in DMEM containing 0.5% FBS and remodilin (10 µM remodilin 39 [top row] or remodilin 83 [bottom row]) or diluent (0.1% DMSO) for 48 hrs (representative 48 hr images shown).
as §2

[12] = Lipophilicity and dissolution in vehicles; format: physicochemical
Protocol: In the experiments corresponding to FIG. 7, remodilin 83 was dissolved in 20% Solutol in PBS.

[13] = system: SRF-dependent transcription; test: TGFβ-stimulated SRF-dependent transcription (luciferase reporter); format: cell-based; settings: human lung fibroblasts; 10 μM
Protocol: (§4) FIG. 2 Signaling pathway targeted by remodilins. Schematic diagram (center) of signaling from TGFβ to (SRF); red proteins are some, but not all, potential targets. TGFβ stimulates Smad-dependent transcription in human lung fibroblasts that is unchanged by 10 μM remodilin 4 (left), but TGFβ-stimulated SRF-dependent transcription is inhibited by the remodilin (right). SBE—Smad binding element; Luc—luciferase; TK-RL—constitutively active thymidine kinase promoter-driven renilla luciferase (used to control for transfection efficiency).
(§5) In cultured human lung fibroblasts, remodilins act downstream of Smad signaling, which remains intact, though TGFβ-induced SRF activation is blocked (FIG. 2); SRF is necessary for expression of smooth muscle α-actin and other contractile proteins. Remodilins also suppress TGFβ-induced HIF1α expression in human lung fibroblasts and HIF1α-stimulated pathways in human airway myocytes.

[14] = system: Smad-dependent transcription; test: TGFβ-stimulated Smad-dependent transcription (SBE-Luc reporter); format: cell-based; settings: human lung fibroblasts; 10 μM
Protocol: as §4, §5

[15] = system: human primary trabecular meshwork cells; test: α-SMA expression in TGF-β2 treated TM cells; format: cell-based; settings: TGFβ2 5 ng/mL 48 hr; remodilin 3 μM, PGE2 1 μM; vs DMSO
Protocol: FIG. 9 Anti-fibrogenic effects of remodilin 50 in human primary trabecular meshwork cells.
(§6) TM cells were cultured in 6-well plates and serum-deprived for one day before drug treatment. Cells were treated with prostaglandin E2 (PGE2, 1 μM), remodilin [3 μM] or vehicle control (dimethyl sulfoxide, DMSO) together with human recombinant TGF-β2 [5 ng/ml] for 48 hours. PGE2 was chosen as a positive control due to its known anti-fibrogenic effects. […] The effect of remodilin treatment alone on cellular contractile force in TM cells was examined. The effects of remodilin treatment using “force response ratio” which is a normalized average contractile force compared to baseline, was examined. Average contractile force was measured using Fourier-Transform Traction Microscopy. After 1 hr treatment, compared to DMSO, remodilins reduced average contractile force of TM cells in a dose dependent manner. […] Therefore, remodilins may change structural compositions and mechanical properties of TM and therefore, may help increase outflow facility in glaucomatous eyes with elevated TGF-β2 level.

TM cells = test: Contractile force of TM cells (Fourier-Transform Traction Microscopy); format: cell-based, human; settings: treatment alone, 1 hr, vs DMSO; dose dependent
Protocol: as §6

Structure (SMILES) | elevation of cellular contractile force in TGFβ2 treated SC cells [1] | cellular contractile force of SC cells, remodilin alone [1] | fibronectin expression in TGFβ2 treated SC cells [2] | TGFβ-stimulated transformation of human lung-derived fibroblasts to myofibroblast phenotype (ACTA2 or FN1 protein expression) [9] | α-SMA expression induced by TGF-β2 in TM cells [15] | average contractile force of TM cells (force response ratio) (TM cells) | further results
CC1CCCCN1S(=O)(=O)c1ccc(NC(=O)c2ccc(Br)c(I)c2)cc1 (stereo not drawn) [Remodilin 73, 4-Bromo-3-iodo-N-(4-((2-methylpiperidin-1-yl)sulfonyl)phenyl)benzamide] | inhibited the elevation of cellular contractile force | induced relaxation in SC cells | inhibited fibronectin expression |  |  |  | 
COc1ccc(C(=O)Nc2ccc(S(=O)(=O)N3CCCCC3C)cc2)cc1I (stereo not drawn) [Remodilin 39, 3-Iodo-4-methoxy-N-(4-((2-methylpiperidin-1-yl)sulfonyl)phenyl)benzamide] |  |  |  | blunt TGFβ-stimulated transformation |  |  | HIF1α accumulation in HEK293 cells exposed to hypoxia (HIF1α [3]): blunted HIF1α accumulation substantially; 10% FBS-directed invasion migration of BM1 cells through Matrigel-coated transwell membrane [4]: inhibited; bioavailability ([5]; po): 4%; AUC [5]: 224 ng·h/mL; Cmax [5]: 240 nM; half-life [5]: 1.3 h; tissue distribution [6]: distributed much more uniformly across tissues; HIF1α accumulation in HEK293T cells exposed to hypoxia (HIF1α [7]): inhibit the accumulation of HIF1α; migration of confluent MDA-MB-231 cells into circular scratch wound (MDA-MB-231 cells [8]): inhibited migration; growth inhibition or cytotoxicity by Alamar blue assay (MDA-MB-231 cells [10]): Neither remodilin is growth-inhibitory or cytotoxic; invasion of MDA-MB-231 cells from spheroids into collagen gels (MDA-MB-231 cells [11]): inhibited invasion; lipophilicity / lipid solubility [12]: highly lipid soluble
CCN(CC)S(=O)(=O)c1ccc(NC(=O)c2ccc(OC)c(I)c2)cc1 [Remodilin 4, N-(4-(N,N-diethylsulfamoyl)phenyl)-3-iodo-4-methoxybenzamide] |  |  |  | blunt TGFβ-stimulated transformation |  |  | TGFβ-stimulated SRF-dependent transcription [13]: inhibited; TGFβ-stimulated Smad-dependent transcription [14]: unchanged
CCCCC[C@H](O)/C=C/[C@H]1[C@H](O)CC(=O)[C@@H]1C/C=C\CCCC(=O)O [PGE2, prostaglandin E2, reference compound] |  |  |  |  | inhibited α-SMA expression |  | 
O=C(Nc1ccc(S(=O)(=O)N2CCCC2)cc1)c1ccc(Br)c(I)c1 [Remodilin 50, 4-Bromo-3-iodo-N-(4-(pyrrolidin-1-ylsulfonyl)phenyl)benzamide] | inhibited the elevation of cellular contractile force | induced relaxation in SC cells | inhibited fibronectin expression | blunt TGFβ-stimulated transformation | inhibited alpha smooth muscle actin expression | induced relaxation in TM cells | 
CCC1CCCCN1S(=O)(=O)c1ccc(NC(=O)c2ccc(OC)c(I)c2)cc1 (stereo not drawn) [Remodilin 82, N-(4-((2-ethylpiperidin-1-yl)sulfonyl)phenyl)-3-iodo-4-methoxybenzamide] | inhibited the elevation of cellular contractile force | induced relaxation in SC cells | inhibited fibronectin expression |  |  | induced relaxation in TM cells | 
